# Reference: patent US5684034A, “1H-indole-3-acetamide sPLA2 inhibitors” (Eli Lilly and Company, priority 1995, dated 1997)
# Like-named read-outs stand apart in the source and are kept apart here.
# What was measured:
# sPLA2 = biological target: T1, sPLA2 (Homo sapiens, UniProt P14555); test: Tissue test: sPLA2-induced contraction of guinea pig lung pleural strips; design: species or system guinea pig (male Hartley); details: % suppression of sPLA2 contraction (sPLA2 10 ug/ml) at compound concentration of 30 uM, read-out: Tissue Test (sPLA2) % Supp (30 uM)
# T1 sequence (P14555 21-144): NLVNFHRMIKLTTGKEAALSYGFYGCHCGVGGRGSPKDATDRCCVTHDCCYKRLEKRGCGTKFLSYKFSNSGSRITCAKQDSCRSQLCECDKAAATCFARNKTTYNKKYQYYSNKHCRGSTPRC
# Text: Male Hartley strain guinea pigs (500-700 g) were killed by cervical dislocation and their heart and lungs removed intact and placed in aerated (95% O2 :5% CO2) Krebs buffer. Dorsal pleural strips (4×1×25 mm) were dissected from intact parenchymal segments (8×4×25 mm) cut parallel to the outer edge of the lower lung lobes. Two adjacent pleural strips, obtained from a single lobe and representing a single tissue sample, were tied at either end and independently attached to a metal support rod. One rod was attached to a Grass force-displacement transducer (Model FTO3C, product of Grass Medical Instruments Co., Quincy, Mass., U.S.A.). […] All tissues were placed in 10 ml jacketed tissue baths maintained at 37° C. The tissue baths were continuously aerated and contained a modified Krebs solution of the following composition (millimolar) NaCl, 118.2; KCl, 4.6; CaCl2.2H2 O, 2.5; MgSO4.7H2 O, 1.2; NaHCO3, 24.8; KH2 PO4, 1.0; and dextrose, 10.0. Pleural strips from the opposite lobes of the lung were used for paired experiments. […] The tissues were allowed to equilibrate for 45 min. as the bath fluid was changed periodically.
# Initially tissues were challenged 3 times with KCl (40 mM) to test tissue viability and to obtain a consistent response. After recording the maximal response to KCl, the tissues were washed and allowed to return to baseline before the next challenge. Cumulative concentration-response curves were obtained from pleural strips by increasing the agonist concentration (sPLA2) in the tissue bath by half-log10 increments while the previous concentration remained in contact with the tissues (Ref. 1, supra.) Agonist concentration was increased after reaching the plateau of the contraction elicited by the preceding concentration. One concentration-response curve was obtained from each tissue. To minimize variability between tissues obtained from different animals, contractile responses were expressed as a percentage of the maximal response obtained with the final KCl challenge. When studying the efects of various drugs on the contractile efects of sPLA2, the compounds and their respective vehicles were added to the tissues 30 min. prior to starting the sPLA2 concentration-response curves.
# Data from different experiments were pooled and presented as a percentage of the maximal KCl responses (mean±S.E.). To estimate the drug induced rightward shifts in the concentration response curves, the curves were analyzed simultaneously using statistical nonlinear modeling methods similar to those described by Waud (1976), Equation 26, p. 163, (Ref. 2). The model includes four parameters: the maximum tissue response which was assumed the same for each curve, the ED50 for the control curve, the steepness of the curves, and the pA2, the concentration of antagonist chat requires a two-fold increase in agonist to achieve an equivalent response. The Schild slope was determined to be 1, using statistical nonlinear modeling methods similar to those described by Waud (1976), Equation 27, p. 164 (Ref. 2).
# To estimate the drug-induced suppression of the maximal responses, sPLA2 responses (10 ug/ml) were determined in the absence and presence of drug, and percent suppression was calculated for each pair of tissues.
# [1] = biological target: T2, recombinant human secreted phospholipase A2 (Homo sapiens, UniProt P14555); test: Human secreted phospholipase A2 inhibition test (chromogenic assay, diheptanoyl thio-PC substrate); type: biochemical; details: pH 7.5, 40° C., 30 minutes, 405 nm
# T2 sequence (P14555 21-144): T1 sequence (P14555 21-144)
# Description: The following chromogenic assay procedure was used to identify and evaluate inhibitors of recombinant human secreted phospholipase A2. The assay described herein has been adapted for high volume screening using 96 well microtiter plates.
# A measured volume of racetic dipheptanoyl thio PC supplied in chloroform at a concentration of 100 mg/ml is taken to dryness and redissolved in 10 millimolar TRITON X-100™ nonionic detergent aqueous solution. Reaction Buffer is added to the solution, then DTNB to give the Reaction Mixture.
# The reaction mixture thus obtained contains 1 mM diheptanoly thio-PC substrate, 0.29 mm Triton X-100™ detergent, and 0.12 mm DTMB in a buffered aqueous solution at pH 7.5.
# 1. Add 0.2 ml reaction mixture to all wells;
# 2. Add 10 ul test compound (or solvent blank) to appropriate wells, mix 20 seconds:
# 3. Add 50 nanograms of sPLA2 (10 microliters) to appropriate wells;
# 4. incubate plate at 40° C. for 30 minutes;
# All compounds were tested in triplicate. […] Each sample was titrated in triplicate and result values were averaged for plotting and calculation of IC50 values. […] Each IC50 value was determined three times.
# [2] = read-out: Inhibition of human secreted PLA2 IC50 ± mean deviation (3-5 tests)
# [3] = Inhibition of human secreted PLA2 IC50 ± mean deviation (3-5 tests)
"IC50 ([1]; unit printed um, read-out: Inhibition of human secreted PLA2 IC50 ± mean deviation (3-5 tests))",SMILES,inhibition at 30 µM (sPLA2),"IC50 [1, 2]","IC50 [1, 3]"
–,"CCOC(=O)COc1ccc2c(c1)c(CC(N)=O)c(C)n2Cc1ccccc1 [Example 18, 2-[[3-(2-Amino-2-oxoethyl)-2-methyl-1-(phenylmethyl)-1H-indol-5-yl]oxy]acetic acid ethyl ester]",74.1 ± 4%,0.8 ± 0.05 µM,–
–,"CCc1c(CC(N)=O)c2cc(OC)ccc2n1Cc1ccccc1 [Example 9, 2-Ethyl-5-methoxy-1-(phenylmethyl)-1H-indole-3-acetamide]",49.2 ± 9.4%,0.26 ± 0.11 µM,–
–,"COc1ccc2c(c1)c(CC(N)=O)c(SC)n2Cc1ccccc1 [Example 12, 5-Methoxy-2-(methylthio)-1-(phenylmethyl)-1H-indole-3-acetamide]",30.3 ± 15.2%,–,0.4 ± 0.09 µM
–,"COc1ccc2c(c1)c(CC(N)=O)c(C)n2Cc1ccccc1 [Example 5, 5-Methoxy-2-methyl-1-(phenylmethyl)-1H-indole-3-acetamide]",74.9 ± 4.2%,0.84 ± 0.17 µM,–
–,"COc1ccc2c(c1)c(CC(N)=O)c(C)n2CC1CCCCC1 [Example 4, 1-Cyclohexylmethyl-5-methoxy-2-methyl-1H-indole-3-acetamide]",10.5 ± 23.1%,2.05 ± 0.85 µM,–
–,"Cc1c(CC(N)=O)c2cc(OCCCCC(=O)O)ccc2n1Cc1ccccc1 [Example 23, 5-[[3-(2-Amino-2-oxoethyl)-2-methyl-1-(phenylmethyl)-1H-indol-5-yl]oxy]pentanoic acid]",83.3 ± 2.7%,0.92 ± 0.36 µM,–
–,"CCc1c(CC(N)=O)c2cc(OCCCP(=O)(OC)OC)ccc2n1Cc1ccccc1 [Example 61, [3-[[3-(2-Amino-2-oxoethyl)-2-ethyl-1-(phenylmethyl)-1H-indol-5-yl]oxy]propyl]phosphonic acid dimethyl ester]",–,–,0.27 µM
–,"Cc1c(CC(N)=O)c2cc([N+](=O)[O-])ccc2n1Cc1ccccc1 [Example 16, 2-Methyl-5-nitro-1-(phenylmethyl)-1H-indole-3-acetamide]",51.7 ± 4.2%,1.84 ± 0.44 µM,–
1.23 ± 0.33 µM,"COc1ccc2c(CC(N)=O)c(C)n(Cc3ccccc3)c2c1 [Example 29, 6-Methoxy-2-methyl-1-(phenylmethyl)-1H-indole-3-acetamide]",–,–,–
–,"CCCc1c(CC(N)=O)c2cc(OC)ccc2n1Cc1ccccc1 [Example 10, 5-Methoxy-1-(phenylmethyl)-2-propyl-1H-indole-3-acetamide]",–,38.1 ± 2.82 µM,–
–,"Cc1c(CC(N)=O)c2cc(OCCC(=O)O)ccc2n1Cc1ccccc1 [Example 21, 3-[[3-(2-Amino-2-oxoethyl)-2-methyl-1-(phenylmethyl)-1H-indol-5-yl]oxy]-propanic acid]",–,–,0.43 ± 0.23 µM
–,"CCOC(=O)CCCCOc1ccc2c(CC(N)=O)c(C)n(Cc3ccccc3)c2c1 [Example 33, 5-[[3-(2-Amino-2-oxoethyl)-2-methyl-1-(phenylmethyl)-1H-indol-6-yl]oxy]pentanoic acid ethyl ester]",–,–,0.3 ± 0.12 µM
–,"CCOC(=O)CCCOc1cccc2c1c(CC(N)=O)c(C)n2Cc1ccccc1 [Example 37, 4-[[3-(2-Amino-2-oxoethyl)-2-methyl-1-(phenylmethyl)-1H-indol-4-yl]oxy]butanoic acid ethyl ester]",–,9.44 ± 1.44 µM,–
